Experimental data as given in patent US10532065B2, “Bisphosphonic acid derivative and application for same” (NAGASAKI UNIVERSITY, priority 2014, dated 2020).
Where “and” joins values, the source holds several entries; their conditions need not be identical. Identical values can stand only once. Like-named read-outs stand apart in the source and are kept apart here.

Tests used:
Format in all cases: cell-based
[1] = test system: U937 cells; assay: U937 cell growth inhibition (direct antitumor action, CellTiterGlo); details: for IC50: U937 cell growth inhibition, 4 days culture; for direct antitumor activity (in words): U937 growth inhibition
Description: (§1) The direct antitumor action of bisphosphonic acid POM ester and bisphosphonic acid was studied by comparison using U937.
(§2) The direct antitumor action of various bisphosphonic acid POM esters was studied by comparison using U937 and EJ-1. The measurement was performed according to Experimental Example 2 and Experimental Example 4.

[2] = test system: EJ-1 cells / γδ T cells; assay: TNF-α production from γδ T cells stimulated by compound-pretreated EJ-1 cells (indirect antitumor action, ELISA); details: for EC50: EJ-1 pretreated 4 hr with compound, 16 hr with γδ T cells, TNF-α ELISA, read-out: TNF-α50
Description: The indirect antitumor action of bisphosphonic acid POM esters and bisphosphonic acids was studied by comparison using EJ-1. In principle, EJ-1 is treated with a compound, washed, and reacted with γδ T cells, and the cytotoxic ability is studied by comparison, by quantifying TNF-α produced by γδ T cells during cell disordering. TNF-α is generally used as an index of γδ T cell induction ability and/or proliferative capacity, and γδ T cells are considered to be induced and/or proliferated in proportion to the TNF-α amount (Journal of Immunology, 154, 5986-5994 (1995)). Since the produced TNF-α is what is called a tumor necrosis factor, it is considered to have an action to lower proliferation of cancer cells or induce cell death.
Thereto was added a solution (500 μl) of compounds 3, 5, 6, 7, which are bisphosphonic acid POM ester derivatives, obtained by serially diluting 10 mM stock solution 10-fold from 20 μM, or a solution (500 μl) of bisphosphonic acid 10, 12, 13, 14 compound obtained by serially diluting 10-fold from 200 μM, and the cells were suspended well. These conical tubes were stood at 37° C. for 4 hr, and the cells were washed 3 times with 5 ml of culture medium. To these cells was added 500 μl of medium, and the cells were suspended well. […] The cell culture medium was suspended well, and the plate was centrifuged at 1,700 rpm, 4° C. for 2 min and the culture supernatant (150 μl) was taken and placed in another round-bottomed 96 well plate. The plate was frozen at −80° C. overnight, left standing at room temperature for 1 hr, stirred well and 100 μl thereof was subjected to ELISA of TNF-α. The content of TNF-α was calculated from the analytical curve of TNF-α. These were performed in triplicate, and a graph showing bisphosphonic acid POM ester derivative and the corresponding bisphosphonic acid as one pair was plotted. […] The results of bisphosphonic acid POM ester derivative are shown by -●-, and the results of bisphosphonic acid are shown by -◯-.
The indirect antitumor action of bisphosphonic acid POM esters and bisphosphonic acids was quantitatively studied by comparison using EJ-1. […] Thereto was added a solution (500 μl) of a bisphosphonic acid POM ester derivative obtained by serially diluting 10 mM stock solution 10-fold from 20 μM, or a bisphosphonic acid solution (500 μl) serially diluted 10-fold from 200 μM was added, and the cells were suspended well. These conical tubes were stood at 37° C. for 4 hr, and the cells were washed 3 times with 5 ml of culture medium. To these cells was added 500 μl of medium, and the cells were suspended well. […] The cell culture medium was suspended well, and the plate was centrifuged at 1,700 rpm, 4° C. for 2 min and the culture supernatant (150 μl) was taken and placed in another round-bottomed 96 well plate. The plate was frozen at −80° C. overnight, left standing at room temperature for 1 hr, stirred well and 100 μl thereof was subjected to ELISA of TNF-α. The content of TNF-α was calculated from the analytical curve of TNF-α. These were performed in triplicate, and a half of the concentration of compounds 1-7, which are bisphosphonic acid POM ester derivatives, and compounds 8-14, which are bisphosphonic acids, necessary for producing the maximum amount of TNF-α from γδ T cells was calculated as TNF-α50, and summarized in Table 6.
Therefore, the TNF-α50 value of various bisphosphonic acid POM ester derivatives was calculated. […] Thereto was added a solution (500 μl) of compounds 1-7 and 15-39, which are bisphosphonic acid POM ester derivatives, and compound 42, which is other bisphosphonic acid ester derivative, obtained by serially diluting 10 mM stock solution 10-fold from 20 μM, and the cells were suspended well. These conical tubes were stood at 37° C. for 4 hr, and the cells were washed 3 times with 5 ml of culture medium. To these cells was added 500 μl of medium, and the cells were suspended well. […]

[3] = test system: EJ-1 cells; assay: EJ-1 cell growth inhibition (direct antitumor action, CellTiterGlo); details: for IC50: EJ-1 (bladder cancer) growth inhibition, 4 days culture; for direct antitumor activity (in words): EJ-1 growth inhibition
Description: as §1
(§3) The direct antitumor action of bisphosphonic acid POM ester derivatives and bisphosphonic acids was studied by comparison using EJ-1. It was performed in the same manner as in Experimental Example 1 except that EJ-1 was used as the cell to be used. For recovery of the cells, a conventional EDTA trypsin treatment was performed.
as §3, with “POM esters” for “POM ester derivatives”, “Example 2” for “Example 1”
as §2

SMILES	IC50 [1]	EC50 [2]	IC50 [3]	IC50 ([1]; Homo sapiens, U-937, 96 h)	EC50 ([2]; EJ1)	IC50 ([3]; EJ1, 96 h)	direct antitumor activity (in words) [1]	direct antitumor activity (in words) [3]	TNF-α production induction activity (in words) ([2]; EJ-1 pretreated with compound, γδ T cells)
CC(C)(C)C(=O)OCOP(=O)(OCOC(=O)C(C)(C)C)C(CNc1ccc(C(F)(F)F)cn1)P(=O)(OCOC(=O)C(C)(C)C)OCOC(=O)C(C)(C)C [Compound 17, tetrakispivaloyloxymethyl 2-(5-trifluoromethylpyridin-2-ylamino)ethylidene-1,1-bisphosphonate]	2.6 µM	> 10 µM	4.3 µM	–	–	–	–	–	–
O=P(O)(O)C(CNc1ccc(Br)cn1)P(=O)(O)O [Compound 11, 2-(5-bromopyridin-2-ylamino)ethylidene-1,1-bisphosphonic Acid, reference compound]	–	–	–	200 µM	> 100 µM	290 µM	–	–	–
O=P(O)(O)C(CNc1ccc(F)cn1)P(=O)(O)O [Compound 12, 2-(5-fluoropyridin-2-ylamino)ethylidene-1,1-bisphosphonic Acid, reference compound]	–	–	–	68 µM	49 µM	260 µM	–	–	–
CC(C)(C)C(=O)OCOP(=O)(OCOC(=O)C(C)(C)C)C(CNc1ccc(F)cn1)P(=O)(OCOC(=O)C(C)(C)C)OCOC(=O)C(C)(C)C [Compound 5, tetrakispivaloyloxymethyl 2-(5-fluoropyridin-2-ylamino)ethylidene-1,1-bisphosphonate]	5.3 µM	0.069 µM	4.8 µM and 5.7 µM	–	–	–	–	–	high activity
CC(C)(C)C(=O)OCOP(=O)(OCOC(=O)C(C)(C)C)C(CNc1ccc(Cl)cn1)P(=O)(OCOC(=O)C(C)(C)C)OCOC(=O)C(C)(C)C [Compound 18, tetrakispivaloyloxymethyl 2-(5-chloropyridin-2-ylamino)ethylidene-1,1-bisphosphonate]	3.3 µM	0.38 µM	4.8 µM	–	–	–	–	–	–
O=P(O)(O)C(CNc1ncccn1)P(=O)(O)O [Compound 13, 2-(pyrimidin-2-ylamino)ethylidene-1,1-bisphosphonic Acid, reference compound]	–	–	–	150 µM	48 µM	23 µM	–	–	–
CC(C)(C)C(=O)OCOP(=O)(OCOC(=O)C(C)(C)C)C(CNc1ccc(-c2ccccc2)cn1)P(=O)(OCOC(=O)C(C)(C)C)OCOC(=O)C(C)(C)C [Compound 19, tetrakispivaloyloxymethyl 2-(5-phenylpyridin-2-ylamino)ethylidene-1,1-bisphosphonate]	6.7 µM	> 10 µM	9.5 µM	–	–	–	–	–	–
Cc1cccnc1NCC(P(=O)(O)O)P(=O)(O)O [Compound 8, 2-(3-methylpyridin-2-ylamino)ethylidene-1,1-bisphosphonic Acid, reference compound]	–	–	–	980 µM	> 100 µM	13 µM	–	–	–
CC(C)(C)C(=O)OCOP(=O)(OCOC(=O)C(C)(C)C)C(CNc1ncccc1OCc1ccccc1)P(=O)(OCOC(=O)C(C)(C)C)OCOC(=O)C(C)(C)C [Compound 15, tetrakispivaloyloxymethyl 2-(3-benzyloxypyridin-2-ylamino)ethylidene-1,1-bisphosphonate]	7.1 µM	> 10 µM	16 µM	–	–	–	–	–	–
Cc1ccc(NCC(P(=O)(OCOC(=O)C(C)(C)C)OCOC(=O)C(C)(C)C)P(=O)(OCOC(=O)C(C)(C)C)OCOC(=O)C(C)(C)C)nc1 [Compound 3, tetrakispivaloyloxymethyl 2-(5-methylpyridin-2-ylamino)ethylidene-1,1-bisphosphonate]	5.6 µM	0.48 µM	5.4 µM	–	–	–	–	–	–

Continued, in another order:

IC50 [1]	EC50 [2]	IC50 [3]	IC50 ([1]; Homo sapiens, U-937, 96 h)	EC50 ([2]; EJ1)	IC50 ([3]; EJ1, 96 h)	SMILES	direct antitumor activity (in words) [1]	direct antitumor activity (in words) [3]	TNF-α production induction activity (in words) ([2]; EJ-1 pretreated with compound, γδ T cells)
3 µM	> 10 µM	6.3 µM	–	–	–	CCCCCCCCc1cccc(NCC(P(=O)(OCOC(=O)C(C)(C)C)OCOC(=O)C(C)(C)C)P(=O)(OCOC(=O)C(C)(C)C)OCOC(=O)C(C)(C)C)n1 [Compound 24, tetrakispivaloyloxymethyl 2-(6-octanylpyridin-2-ylamino)ethylidene-1,1-bisphosphonate]	–	–	–
7.9 µM	> 10 µM	16 µM	–	–	–	Cc1cc(NCC(P(=O)(OCOC(=O)C(C)(C)C)OCOC(=O)C(C)(C)C)P(=O)(OCOC(=O)C(C)(C)C)OCOC(=O)C(C)(C)C)no1 [Compound 37, tetrakispivaloyloxymethyl 2-(5-methylisoxazol-3-ylamino)ethylidene-1,1-bisphosphonate]	–	–	–
6.2 µM	> 10 µM	8.8 µM	–	–	–	COc1ccc(-c2cccnc2NCC(P(=O)(OCOC(=O)C(C)(C)C)OCOC(=O)C(C)(C)C)P(=O)(OCOC(=O)C(C)(C)C)OCOC(=O)C(C)(C)C)cc1 [Compound 25, tetrakispivaloyloxymethyl 2-[3-(4-methoxyphenyl)pyridin-2-ylamino]ethylidene-1,1-bisphosphonate]	–	–	–
2.2 µM	1.6 µM	1.7 µM	–	–	–	CC(C)(C)C(=O)OCOP(=O)(OCOC(=O)C(C)(C)C)C(Cn1ccc2cccnc21)P(=O)(OCOC(=O)C(C)(C)C)OCOC(=O)C(C)(C)C [Compound 31, tetrakispivaloyloxymethyl 2-(7-azaindol-1-yl)ethylidene-1,1-bisphosphonate]	high activity	high activity	–
6.6 µM	> 10 µM	12 µM	–	–	–	CC(C)(C)C(=O)OCOP(=O)(OCOC(=O)C(C)(C)C)C(CNc1ccnc(Br)c1)P(=O)(OCOC(=O)C(C)(C)C)OCOC(=O)C(C)(C)C [Compound 29, tetrakispivaloyloxymethyl 2-(2-bromopyridin-4-ylamino)ethylidene-1,1-bisphosphonate]	–	–	–
3.4 µM	4.8 µM	3.7 µM	–	–	–	CCCCCCCCc1ccc(NCC(P(=O)(OCOC(=O)C(C)(C)C)OCOC(=O)C(C)(C)C)P(=O)(OCOC(=O)C(C)(C)C)OCOC(=O)C(C)(C)C)nc1 [Compound 22, tetrakispivaloyloxymethyl 2-(5-octanylpyridin-2-ylamino)ethylidene-1,1-bisphosphonate]	–	–	–
1.1 µM	> 10 µM	3.5 µM	–	–	–	CC(C)(C)C(=O)OCOP(=O)(OCOC(=O)C(C)(C)C)C(CNc1nc(-c2ccccc2)cs1)P(=O)(OCOC(=O)C(C)(C)C)OCOC(=O)C(C)(C)C [Compound 35, tetrakispivaloyloxymethyl 2-(4-phenylthiazol-2-ylamino)ethylidene-1,1-bisphosphonate]	high activity	high activity	–
3.5 µM	3.4 µM	4.5 µM	–	–	–	CCCCCCCCc1cccnc1NCC(P(=O)(OCOC(=O)C(C)(C)C)OCOC(=O)C(C)(C)C)P(=O)(OCOC(=O)C(C)(C)C)OCOC(=O)C(C)(C)C [Compound 23, tetrakispivaloyloxymethyl 2-(3-octanylpyridin-2-ylamino)ethylidene-1,1-bisphosphonate]	–	–	–
